Test system: ATF4 luciferase reporter in HEK293T cells
Assay: ATF4-Luc assay (in vitro model of VWMD)
Format: cell-based, human
Conditions: Homo sapiens, HEK-293T, 7 h, HEK293T cells carrying the ATF4 luciferase reporter, 1 μg/mL tunicamycin, One Glo luminescence
How it was run: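 Stable HEK293T line expressing firefly luciferase behind the human ATF4 5′-UTR, treated with 1 μg/mL tunicamycin plus compound for 7 hours. Luminescence read with One Glo; EC50 determined.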

Row | Structure (SMILES) | EC50 [nM]
1 | O=C(COc1ccc(C(F)(F)F)cc1)NC12CC(n3cc(C(=O)N4CC[C@H](OC(F)(F)F)C4)cn3)(C1)C2 [Compound 604, N-(3-{4-[(3S)-3-(trifluoromethoxy)pyrrolidine-1-carbonyl]-1H-pyrazol-1-yl}bicyclo[1.1.1]pentan-1-yl)-2-[4-(trifluoromethyl)phenoxy]acetamide] | < 10
2 | O=C(COc1ccc(Cl)c(F)c1)NC12CC(c3ccc(C(=O)N4CCC(C(F)(F)F)C4)nc3)(C1)C2 (stereo not drawn) [Compound 619, 2-(4-chloro-3-fluorophenoxy)-N-(3-{6-[3-(trifluoromethyl)pyrrolidine-1-carbonyl]pyridin-3-yl}bicyclo[1.1.1]pentan-1-yl)acetamide] | 10 to 50
3 | O=C(NC12CC(n3cc(O[C@H]4CC[C@H](OC(F)(F)F)C4)cn3)(C1)C2)[C@H]1C[C@@H](O)c2cc(Cl)ccc2O1 (racemic) [Compound 586, (2R,4R)-6-chloro-4-hydroxy-N-[3-(4-{[(1RS,3RS)-3-(trifluoromethoxy)cyclopentyl]oxy}-1H-pyrazol-1-yl)bicyclo[1.1.1]pentan-1-yl]-3,4-dihydro-2H-1-benzopyran-2-carboxamide] | 10 to 50
4 | CN(CCCOC(F)(F)F)c1cnn(C23CC(NC(=O)[C@H]4C[C@@H](O)c5cc(Cl)ccc5O4)(C2)C3)c1 [Compound 430, (2R,4R)-6-chloro-4-hydroxy-N-[3-(4-{methyl[3-(trifluoromethoxy)propyl]amino}-1H-pyrazol-1-yl)bicyclo[1.1.1]pentan-1-yl]-3,4-dihydro-2H-1-benzopyran-2-carboxamide] | 10 to 50
5 | O=C(NC12CC(n3cc(-c4ccc(OC(F)(F)F)cn4)cn3)(C1)C2)[C@H]1C[C@H](O)c2cc(Cl)c(F)cc2O1 [Compound 476, (2R,4S)-6-chloro-7-fluoro-4-hydroxy-N-(3-{4-[5-(trifluoromethoxy)pyridin-2-yl]-1H-pyrazol-1-yl}bicyclo[1.1.1]pentan-1-yl)-3,4-dihydro-2H-1-benzopyran-2-carboxamide] | < 10
6 | O=C(NC12CC(n3cc(-c4ccc(OC(F)(F)F)cn4)cn3)(C1)C2)[C@H]1C[C@@H](O)c2cc(Cl)ccc2O1 [Compound 308, (2R,4R)-6-chloro-4-hydroxy-N-(3-{4-[5-(trifluoromethoxy)pyridin-2-yl]-1H-pyrazol-1-yl}bicyclo[1.1.1]pentan-1-yl)-3,4-dihydro-2H-1-benzopyran-2-carboxamide] | < 10
7 | O=C(NC12CC(n3cc(OCCOC(F)(F)F)cn3)(C1)C2)[C@@H]1C[C@@H](O)c2cc(Cl)c(F)cc2O1 [Compound 432, (2S,4R)-6-chloro-7-fluoro-4-hydroxy-N-(3-{4-[2-(trifluoromethoxy)ethoxy]-1H-pyrazol-1-yl}bicyclo[1.1.1]pentan-1-yl)-3,4-dihydro-2H-1-benzopyran-2-carboxamide] | < 10
8 | O=C(NC12CC(c3ccc(OCCOC(F)(F)F)nc3)(C1)C2)[C@H]1C[C@@H](O)c2cc(Cl)c(F)cc2O1 [Compound 446, (2R,4R)-6-chloro-7-fluoro-4-hydroxy-N-(3-{6-[2-(trifluoromethoxy)ethoxy]pyridin-3-yl}bicyclo[1.1.1]pentan-1-yl)-3,4-dihydro-2H-1-benzopyran-2-carboxamide] | 10 to 50
9 | O=C(NC12CC(n3cc(-c4ccc(OC(F)F)cn4)cn3)(C1)C2)[C@H]1C[C@@H](O)c2cc(Cl)c(F)cc2O1 [Compound 576, (2R,4R)-6-chloro-N-(3-{4-[5-(difluoromethoxy)pyridin-2-yl]-1H-pyrazol-1-yl}bicyclo[1.1.1]pentan-1-yl)-7-fluoro-4-hydroxy-3,4-dihydro-2H-1-benzopyran-2-carboxamide] | < 10
10 | O=C(NC12CC(OCC(=O)N3CC(OC(F)(F)F)C3)(C1)C2)[C@H]1C[C@@H](O)c2cc(Cl)ccc2O1 [Compound 333, (2R,4R)-6-chloro-4-hydroxy-N-(3-{2-oxo-2-[3-(trifluoromethoxy)azetidin-1-yl]ethoxy}bicyclo[1.1.1]pentan-1-yl)-3,4-dihydro-2H-1-benzopyran-2-carboxamide] | 50 to 250
11 | O=C(NC12CC(n3cc(-c4ccc(C(F)(F)F)cn4)cn3)(C1)C2)[C@H]1C[C@@H](O)c2cc(F)c(F)cc2O1 [Compound 553, (2R,4R)-6,7-difluoro-4-hydroxy-N-(3-{4-[5-(trifluoromethyl)pyridin-2-yl]-1H-pyrazol-1-yl}bicyclo[1.1.1]pentan-1-yl)-3,4-dihydro-2H-1-benzopyran-2-carboxamide] | < 10
12 | O=C(NC12CC(n3cnc(-c4ccc(Cl)c(F)c4F)c3)(C1)C2)[C@H]1C[C@@H](O)c2cc(Cl)ccc2O1 [Compound 394, (2R,4R)-6-chloro-N-{3-[4-(4-chloro-2,3-difluorophenyl)-1H-imidazol-1-yl]bicyclo[1.1.1]pentan-1-yl}-4-hydroxy-3,4-dihydro-2H-1-benzopyran-2-carboxamide] | < 10
13 | O=C(COc1ccc(Cl)c(F)c1)NC12CC(n3cc(OC[C@H]4C[C@@H](OC(F)(F)F)C4)cn3)(C1)C2 [Compound 612, 2-(4-chloro-3-fluorophenoxy)-N-[3-(4-{[(1s,3s)-3-(trifluoromethoxy)cyclobutyl]methoxy}-1H-pyrazol-1-yl)bicyclo[1.1.1]pentan-1-yl]acetamide] | < 10
14 | O=C(NC12CC(n3cc(C(=O)N4CC(OC(F)(F)F)C4)cn3)(C1)C2)[C@H]1C[C@@H](O)c2cc(Cl)ccc2O1 [Compound 341, (2R,4R)-6-chloro-4-hydroxy-N-(3-{4-[3-(trifluoromethoxy)azetidine-1-carbonyl]-1H-pyrazol-1-yl}bicyclo[1.1.1]pentan-1-yl)-3,4-dihydro-2H-1-benzopyran-2-carboxamide] | 10 to 50
15 | O=C(NC12CC(n3cc(COCCOC(F)(F)F)nn3)(C1)C2)[C@H]1C[C@@H](O)c2cc(Cl)c(F)cc2O1 [Compound 467, (2R,4R)-6-chloro-7-fluoro-4-hydroxy-N-[3-(4-{[2-(trifluoromethoxy)ethoxy]methyl}-1H-1,2,3-triazol-1-yl)bicyclo[1.1.1]pentan-1-yl]-3,4-dihydro-2H-1-benzopyran-2-carboxamide] | < 10
16 | O=C(NC12CC(n3cc(OC[C@H]4C[C@@H](OC(F)(F)F)C4)cn3)(C1)C2)[C@H]1C[C@@H](O)c2cc(Cl)ccc2O1 [Compound 402, (2R,4R)-6-chloro-4-hydroxy-N-[3-(4-{[cis-3-(trifluoromethoxy)cyclobutyl]methoxy}-1H-pyrazol-1-yl)bicyclo[1.1.1]pentan-1-yl]-3,4-dihydro-2H-1-benzopyran-2-carboxamide] | < 10
17 | Cn1nc(C23CC(NC(=O)COc4ccc(Cl)c(F)c4)(C2)C3)cc1OC[C@H]1C[C@@H](OC(F)(F)F)C1 [Compound 387, 2-(4-chloro-3-fluorophenoxy)-N-[3-(1-methyl-5-{[cis-3-(trifluoromethoxy)cyclobutyl]methoxy}-1H-pyrazol-3-yl)bicyclo[1.1.1]pentan-1-yl]acetamide] | 50 to 250
18 | O=C(COc1ccc(Cl)c(F)c1)NC12CC(n3cc(C(=O)N4CC[C@H](OC(F)(F)F)C4)nn3)(C1)C2 [Compound 599, 2-(4-chloro-3-fluorophenoxy)-N-(3-{4-[(3S)-3-(trifluoromethoxy)pyrrolidine-1-carbonyl]-1H-1,2,3-triazol-1-yl}bicyclo[1.1.1]pentan-1-yl)acetamide] | < 10

From patent US20250145594A1, “MODULATORS OF THE INTEGRATED STRESS PATHWAY” (Calico Life Sciences LLC, priority 2020, published 2025)
